Measured values published in PubChem BioAssay (NCI).
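Values below derive from 48-hour exposures of cells grown in 96-well plates, with endpoints linearly interpolated between the two concentrations bracketing the appropriate inhibition level. TGI: concentration producing complete growth inhibition.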

Experiments:
Experiment in all cases: NCI tumour cell line growth inhibition, 48 h
P388 leukemia = system: P388 leukemia
XF 498 CNS = system: XF 498 CNS
KM20L2 colon = system: KM20L2 colon
HOP-18 NSCLC = system: HOP-18 NSCLC
P388/ADR leukemia = system: P388/ADR leukemia
DMS 273 small cell lung = system: DMS 273 small cell lung
SN12K1 renal = system: SN12K1 renal
M19-MEL melanoma = system: M19-MEL melanoma
DMS 114 small cell lung = system: DMS 114 small cell lung
LXFL 529 NSCLC = system: LXFL 529 NSCLC

| SMILES | TGI (P388 leukemia) [µM] | TGI (XF 498 CNS) [µM] | TGI (KM20L2 colon) [µM] | TGI (HOP-18 NSCLC) [µM] | TGI (P388/ADR leukemia) [µM] | TGI (DMS 273 small cell lung) [µM] | TGI (SN12K1 renal) [µM] | TGI (M19-MEL melanoma) [µM] | TGI (DMS 114 small cell lung) [µM] | TGI (LXFL 529 NSCLC) [µM] |
| --- | --- | --- | --- | --- | --- | --- | --- | --- | --- | --- |
| CSc1nc(NC2OCC(O)C(O)C2O)c(N)c(=O)n1C (centres undefined) | > 100 | > 100 | > 100 | > 100 | > 100 | > 100 | > 100 | – | – | – |
| C[C@@H]1C[C@]2(C[C@@H](C)[C@H]3C(C[C@@]4(C)CCC[C@@H]5C6=C[C@H](CCC34C)OC6=CC(=O)OC5(C)C)O2)OC1=O (some centres undefined) | > 51.5 | > 51.5 | > 51.5 | > 51.5 | > 51.5 | > 51.5 | > 51.5 | > 51.5 | > 51.5 | – |
| COc1ccc(C[C@H](N)C(=O)N2C[C@H](CO)C[C@H](n3ccc(=O)[nH]c3=O)C2)cc1 | – | – | > 100 | > 100 | – | > 100 | – | > 100 | > 100 | > 100 |
| [N-]=[N+]=NC1CC(n2cc(COCC(F)(F)F)c(=O)[nH]c2=O)OC1CO (centres undefined) | – | > 100 | > 100 | – | – | > 100 | – | > 100 | > 100 | > 100 |
| Oc1ccc2c(c1)CC[N+]1=C2CCC2CCCC21 (centres undefined) | – | – | – | – | – | > 100 | – | > 100 | > 100 | > 100 |
| O=C1c2ccccc2C(=O)c2c1ccc1c2N=C(c2ccc(F)cc2)CC(c2ccc(Cl)c(Cl)c2)N1 (centres undefined) | – | – | 30.8 | – | – | – | – | 40.4 | 21.7 | 30 |
| CC(=O)OCc1cc(=O)n(C)c2c3c4c(cc12)c(C)cc(=O)n4CO3 | 4.99 | 3.82 | 15.8 | 51.5 | 3.34 | 3.86 | 5.57 | 4.21 | 6.11 | – |
| CN(C)CCCNc1c2ccccc2nc2cccc([N+](=O)[O-])c12 | – | 0.0147 | 0.0398 | – | – | 0.0184 | – | 0.0787 | 0.0385 | – |
| COC(=O)c1nc(-c2ccc3c(n2)C(=O)C(N)=C(OC)C3=O)c(N)c(-c2ccc(OC)c(OC)c2O)c1C | 3.74 | 2.85 | 5.97 | 17.8 | 3.17 | 1.46 | 3.38 | 1.26 | 2.31 | – |
